The target in data set [1] is T1, human histamine 3 receptor (H3R) (Homo sapiens, UniProt Q9Y5N1).
T1 construct: expressed in transfected cells; membranes
As to the kind of experiment: Competitive inhibition SPA radioligand binding assay, H3R. An excerpt:
The inventive compounds can readily be evaluated by using a competitive inhibition Scintillation Proximity Assay (SPA) based on a H3R binding assay using [3H] a methylhistamine as ligand. Stable cell lines, including but not limited to HEK can be transfected with cDNA coding for H3R to prepare membranes used for the binding assay. The technique is illustrated below (Example 3) for the histamine receptor subtypes.
C. Preparation of H3R Membranes
cDNA for the human histamine 3 receptor was cloned and expressed as described in Example 1, above. Transfected cells were selected using G418 ([…]), grown, and tested for histamine binding by the SPA described above. For total binding, cells were assayed in a SPA reaction described above containing 50 mM Tris-HCL (assay buffer), pH 7.6, 1 mg wheat germ agglutinin SPA beads (Amersham Pharmacia Biotech, #RPNQ0001), and 1 nM (^3H)-n-alpha-methylhistamine (NEN, NET1027) (total volume per well=200 μl). Thioperimide was added to determine non-specific binding. Several clones were selected as positive for binding, and a single clone (H3R8) was used to prepare membranes for binding studies described above. Five micrograms of protein was used per well in the SPA receptor-binding assay.
To investigate the selectivity of the antagonists for the histamine receptors, a competitive binding assay described above was performed. […]

The target in data set [2] is T2, human histamine 2 receptor (Homo sapiens, UniProt P25021).
T2 construct: expressed in transfected cells; membranes
The data set is described as follows: Competitive SPA binding assay, H2R, 3H-tiotidine. As to conditions: selectivity study Table 2, read-out: Ki (nM) H2. On the procedure: B. Preparation H2R Membranes
cDNA for the human histamine 2 receptor was cloned, expressed and transfected into HEK 293 cells as described above. Histamine binding to cells was assayed by SPA described above. For total binding, cells were assayed in a SPA reaction containing 50 mM Tris-HCl (assay buffer), pH 7.6, 1 mg wheat germ agglutinin SPA beads (Amersham Pharmacia Biotech, #RPNQ0001), and 6.2 nM ^3H-tiotidine (Net-688, NEN) (total volume per well=200 μl). Cimetidine (10 μM, Sigma #C4522) was added to appropriate wells to determine non-specific binding.
Several clones were selected as positive for binding, and a single clone (H2R10) was used to prepare membranes for binding studies. Five micrograms of protein was used per well in the SPA receptor-binding assay.
(§1) To investigate the selectivity of the antagonists for the histamine receptors, a competitive binding assay described above was performed. […] Until the present invention, most known H3R antagonists also bound H4R.

Data set [3] has as its target T3, human histamine 1 receptor (H1R) (Homo sapiens, UniProt P35367).
T3 construct: expressed in transfected cells; membranes
As to the kind of experiment: Competitive SPA binding assay, H1R, 3H-pyrilamine. To be noted: selectivity study Table 2. On the procedure: A. Preparation H1R Membranes
cDNA for the human histamine 1 receptor (H1R) was cloned into a mammalian expression vector containing the CMV promoter (pcDNA3.1 (+), Invitogen) and transfected into HEK293 cells using the FuGENE Tranfection Reagent (Roche Diagnostics Corporation). Transfected cells were selected using G418 (500 μ/ml). Colonies that survived selection were grown and tested for histamine binding to cells grown in 96-well dishes using a scintillation proximity assay (SPA) based radioligand binding assay. Briefly, cells, representing individual selected clones, were grown as confluent monolayers in 96-well dishes (Costar Clear Bottom Plates, #3632) by seeding wells with 25,000 cells and growing for 48 hours (37° C., 5% CO2). Growth media was removed and wells were rinsed two times with PBS (minus Ca^2+ or Mg^2+). For total binding, cells were assayed in a SPA reaction containing 50 mM Tris-HCL (assay buffer), pH 7.6, 1 mg wheat germ agglutinin SPA beads (Amersham Pharmacia Biotech, #RPNQ0001), and 0.8 nM ^3H-pyrilamine (Net-594, NEN) (total volume per well=200 μl). Astemizole (10 μM, Sigma #A6424) was added to appropriate wells to determine non-specific binding. Plates were covered with FasCal and incubated at room temperature for 120 minutes. […] Plates were counted in a Wallac Trilux 1450 Microbeta scintillation counter. […]

Data set [4] addresses T4, human GPRv53 receptor (H4R) (Homo sapiens, UniProt Q9H3N8).
T4 construct: expressed in transfected cells; host or cells: HEK293 GPRv53 50 cells; homogenised whole-cell lysates
The data set is described as follows: Competitive binding assay, GPRv53 (H4R), [3H]histamine. To be noted: for inhibition of binding to H4R compared to H3R: in words; for Ki: selectivity study Table 2. Here is the method:
D. Preparation of GPRv53 Membranes
cDNA for the human GPRv53 receptor was cloned and expressed as described in Example 1, above. Transfected cells were selected, tested for histamine binding, and selected. HEK293 GPRv53 50 cells were grown to confluency in DMEM/F12 (Gibco) supplemented with 5% FBS and 500 ug/ml G418 and washed with Delbecco's PBS (Gibco) and harvested by scraping. Whole cells were homogenized with a Polytron tissuemizer in binding buffer, 50 mM Tris pH 7.5. Cell lysates, 50 ug, were incubated in 96 well dishes with 3 nM (3H) Histamine and compounds in binding buffer for 2 hours at room temperature. Lysates were filtered through glass fiber filters (Perkin Elmer) with a Tomtec cell harverster. Filters were counted with melt-on scintillator sheets (Perkin Elmer) in a Wallac Trilux 1450 Microbeta Scintillation counter for 5 minutes.
as §1

Data set [5] has as its target T5, H3R membranes (H3R8-expressing HEK293 cell line) (Homo sapiens, UniProt Q9Y5N1).
T5 construct: expressed in transfected cells; membranes
The data set is described as follows: [35S]GTPγS binding assay (antagonist inhibition of agonist-stimulated binding). Format: biochemical. To be noted: inhibition of [35S]GTPγS binding to H3R membranes in presence of agonist R(-) alpha methylhistamine. Here is the method:
Membranes isolated as described in Example 3 were used in a [^35S]GTPχS functional assay. Binding of [^35S]GTPχS to membranes indicates agonist activity. Compounds of the invention of Formula I were tested for their ability to inhibit binding in the presence of agonists. Alternately, the same transfected cell lines were used for a cAMP assay wherein H3R agonists inhibited forskolin-activated synthesis of cAMP. Compounds of Formula I were tested for their ability to permit forskolin-stimulated cAMP synthesis in the presence of agonist.
cDNA for the human histamine 3 receptor was cloned and expressed as described in Example 1, above. Transfected cells were selected using G418 (500 μ/ml), grown, and tested for histamine binding by the SPA described above. For total binding, cells were assayed in a SPA reaction described above containing 50 mM Tris-HCL (assay buffer), pH 7.6, 1 mg wheat germ agglutinin SPA beads (Amersham Pharmacia Biotech, #RPNQ0001), and 1 nM (^3H)-n-alpha-methylhistamine (NEN, NET1027) (total volume per well=200 μl). Thioperimide was added to determine non-specific binding. […]
Antagonist activity of selected compounds was tested for inhibition of [^35S] […] Plates were counted in Wallac Trilux 1450 Microbeta scintillation counter for 1 minute. […]
In general terms: GTPγS resists hydrolysis and so accumulates on activated G proteins.

Data set [6] can be described thus: Rat pharmacokinetics, iv and po, LC/MS/MS. Type of data set: in vivo, Male Sprague Dawley Rats. As to conditions: 10 mg/kg po; for oral bioavailability (AUC 0-24 hr; po/iv ratio): 3 mg/kg iv; for half-life: male, Sprague Dawley, read-out: oral half-life (±SEM) (converted). Here is the method: Non-imidazole containing histamine H3 receptor antagonists disclosed in the literature generally have very poor pharmacokinetic properties (see J. Apelt, et al, J. Med. Chem. 2002,45,1128-1141). […] Male Sprague Dawley Rats (n=3 per dose arm) were separately dosed with 3 mg/kg iv or 10 mg/kg po of compound examples 131 and 271 (vehicle: 5% ethanol/water or water respectively; dose volume: 1 mL/kg iv, 10 mL/kg po). Approximately 0.5 mL of blood was collected in heparin collection tubes at multiple time points over an 8 or 24-hour period for examples 131 and 271 respectively, and the samples were analyzed using LC/MS/MS.

Where two headings read alike, the source gives them in different places. Bounds are passed on as bounds.

T4 sequence (Q9H3N8 whole entry): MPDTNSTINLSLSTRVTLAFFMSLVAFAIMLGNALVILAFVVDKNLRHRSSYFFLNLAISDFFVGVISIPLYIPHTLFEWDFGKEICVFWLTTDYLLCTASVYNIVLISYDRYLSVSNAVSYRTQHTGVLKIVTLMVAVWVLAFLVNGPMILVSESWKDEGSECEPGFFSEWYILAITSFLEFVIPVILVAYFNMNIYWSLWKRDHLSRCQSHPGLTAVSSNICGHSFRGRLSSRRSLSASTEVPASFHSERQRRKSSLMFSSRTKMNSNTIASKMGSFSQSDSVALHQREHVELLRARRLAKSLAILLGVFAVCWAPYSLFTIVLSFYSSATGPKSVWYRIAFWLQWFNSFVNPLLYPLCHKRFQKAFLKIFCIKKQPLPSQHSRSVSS
T3 sequence (P35367 whole entry): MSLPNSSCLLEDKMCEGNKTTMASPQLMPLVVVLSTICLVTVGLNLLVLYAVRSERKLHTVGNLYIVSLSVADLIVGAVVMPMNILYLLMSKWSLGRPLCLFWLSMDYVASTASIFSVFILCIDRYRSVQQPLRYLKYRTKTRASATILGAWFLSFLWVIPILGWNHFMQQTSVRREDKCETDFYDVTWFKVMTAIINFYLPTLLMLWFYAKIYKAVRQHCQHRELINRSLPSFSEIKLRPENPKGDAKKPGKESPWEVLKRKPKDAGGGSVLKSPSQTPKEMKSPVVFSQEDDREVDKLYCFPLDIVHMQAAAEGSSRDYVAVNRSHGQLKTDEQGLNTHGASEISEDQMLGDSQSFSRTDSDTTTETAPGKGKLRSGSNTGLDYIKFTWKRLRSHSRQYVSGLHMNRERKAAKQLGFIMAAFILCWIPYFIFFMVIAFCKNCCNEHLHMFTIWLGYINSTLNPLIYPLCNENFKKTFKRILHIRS
T1 sequence (Q9Y5N1 whole entry): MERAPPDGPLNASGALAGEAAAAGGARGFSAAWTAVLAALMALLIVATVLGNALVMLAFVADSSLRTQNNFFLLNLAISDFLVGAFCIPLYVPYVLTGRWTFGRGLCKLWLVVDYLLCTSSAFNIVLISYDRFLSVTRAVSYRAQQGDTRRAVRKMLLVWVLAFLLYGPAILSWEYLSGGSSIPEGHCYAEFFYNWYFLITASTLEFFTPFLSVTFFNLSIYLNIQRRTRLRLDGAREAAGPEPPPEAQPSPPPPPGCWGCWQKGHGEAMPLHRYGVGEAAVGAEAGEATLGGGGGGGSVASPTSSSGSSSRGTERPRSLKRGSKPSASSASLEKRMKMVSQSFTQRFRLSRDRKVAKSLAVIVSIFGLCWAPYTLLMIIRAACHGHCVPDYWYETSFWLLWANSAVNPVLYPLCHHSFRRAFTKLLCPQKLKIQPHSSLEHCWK
T2 sequence (P25021 whole entry): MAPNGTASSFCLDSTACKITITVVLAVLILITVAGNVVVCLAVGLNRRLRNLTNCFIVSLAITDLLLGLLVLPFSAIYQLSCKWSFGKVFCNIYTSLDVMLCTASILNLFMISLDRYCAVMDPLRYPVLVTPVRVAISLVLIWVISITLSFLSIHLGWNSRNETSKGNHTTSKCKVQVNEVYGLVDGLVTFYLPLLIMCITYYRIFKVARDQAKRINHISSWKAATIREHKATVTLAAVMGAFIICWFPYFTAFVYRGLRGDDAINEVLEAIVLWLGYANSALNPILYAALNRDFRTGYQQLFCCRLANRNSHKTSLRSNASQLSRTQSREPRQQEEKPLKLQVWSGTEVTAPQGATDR
T5 sequence (Q9Y5N1 whole entry): as the sequence (Q9Y5N1 whole entry) above

As for `CCN1CCc2cc(OCCCN3CCCCC3)ccc2C1.Cl.Cl` [Example 250, 2-Ethyl-6-(3-piperidin-1-yl-propoxy)-1,2,3,4-tetrahydro-isoquinoline dihydrochloride], the Ki is 0.37 nM in data set [1], 1110 nM in data set [2], 1020 nM in data set [3] and at least 20000 nM in data set [4]. Further, the “inhibition of binding to H4R compared to H3R” value in data set [4] is on record as “did not inhibit binding H4R”.
As for `CCN(CC)CCCOc1ccc(C(C)N(C)CCN(C)C)cc1` (stereo not drawn) [Example 1], in data set [5], the Ki was found to be 0.0014 µM.
Consider `O=C(c1ccc(OCCN2CCCCC2)cc1)N1CCC[C@H]1CN1CCCC1` [Example 131], for which the Ki in data set [1] (competitive binding, selectivity study Table 2, read-out: Ki (nM) H3R) was 1.05 nM; in data set [2], at least 20000 nM; in data set [3], at least 20000 nM; in data set [4], at least 20000 nM. Besides, the “oral bioavailability (AUC 0-24 hr; po/iv ratio)” value in data set [6] is 58%. In addition, the half-life in data set [6] (blood) is 10.4 ± 4.2 h. Further, the “inhibition of binding to H4R compared to H3R” value in data set [4] was “did not inhibit binding H4R”.
As for `CCN1CCc2ccc(OCCCN3CCCCC3)cc2C1.Cl.Cl` [Example 271, 2-Ethyl-7-(3-Piperidin-1-yl-propoxy)-1,2,3,4-tetrahydro-isoquinoline dihydrochloride], the “oral bioavailability (AUC 0-24 hr; po/iv ratio)” value in data set [6] is recorded as 69%. In data set [6] (in vivo), the half-life was 71.9 ± 3.3 h.

A word on the Ki: it is the dissociation constant of the complex between target and ligand, obtained from inhibition or displacement. A word on the half-life: it is the time needed for the level to fall by half in the phase considered.

The values are drawn from patent US7314937B2, “Non-imidazole aryl alkylamines compounds as histamine H3 receptor antagonists, preparation and therapeutic uses” (Eli Lilly and Company, priority 2002, dated 2008).
